Measured values taken from BindingDB's records for doi:10.1007/bf00168610 (UniversitÄT Heidelberg, 1991).
Where “and” joins values, the source holds several entries; their conditions need not be identical. Identical values can stand only once.

How the values were obtained:
[1] = molecular target: T1, Adenosine receptor A3 (Ovis aries, UniProt P35342)
T1 sequence (P35342 whole entry): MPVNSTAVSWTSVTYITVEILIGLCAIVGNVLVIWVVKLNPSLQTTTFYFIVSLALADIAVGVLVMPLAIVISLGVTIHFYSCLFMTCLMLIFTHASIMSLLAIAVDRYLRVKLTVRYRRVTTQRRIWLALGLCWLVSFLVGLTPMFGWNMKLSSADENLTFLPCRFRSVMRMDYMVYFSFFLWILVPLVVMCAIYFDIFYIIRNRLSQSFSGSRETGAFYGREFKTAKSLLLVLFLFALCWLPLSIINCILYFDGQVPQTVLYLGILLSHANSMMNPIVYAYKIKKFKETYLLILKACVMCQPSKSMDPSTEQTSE

[2] = molecular target: T2, Adenosine receptor A1 (Bos taurus, UniProt P28190)
T2 sequence (P28190 whole entry): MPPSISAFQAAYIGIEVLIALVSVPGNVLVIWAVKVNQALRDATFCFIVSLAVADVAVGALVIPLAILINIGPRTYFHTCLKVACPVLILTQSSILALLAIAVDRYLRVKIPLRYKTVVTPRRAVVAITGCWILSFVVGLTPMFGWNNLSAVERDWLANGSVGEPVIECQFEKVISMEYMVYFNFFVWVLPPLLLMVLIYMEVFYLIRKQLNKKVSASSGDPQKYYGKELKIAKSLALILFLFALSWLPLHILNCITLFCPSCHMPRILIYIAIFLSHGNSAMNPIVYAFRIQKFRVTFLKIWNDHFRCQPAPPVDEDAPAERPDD

[3] = molecular target: P2Y purinoceptor 2 (Cricetulus griseus, UniProt P58825)
[4] = molecular target: T3, Adenosine receptor A1 (Cavia porcellus, UniProt P47745)
T3 sequence (P47745 whole entry): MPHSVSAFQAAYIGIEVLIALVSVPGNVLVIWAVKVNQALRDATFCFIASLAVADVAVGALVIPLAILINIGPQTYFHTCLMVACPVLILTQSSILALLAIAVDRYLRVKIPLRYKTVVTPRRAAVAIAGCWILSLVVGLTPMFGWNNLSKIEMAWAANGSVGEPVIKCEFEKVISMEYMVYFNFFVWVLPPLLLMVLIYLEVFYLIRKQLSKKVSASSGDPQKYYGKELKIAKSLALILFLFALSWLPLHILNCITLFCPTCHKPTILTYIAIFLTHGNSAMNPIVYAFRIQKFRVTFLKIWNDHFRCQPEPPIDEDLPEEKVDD

[5] = molecular target: T4, Adenosine receptor A1 (Rattus norvegicus, UniProt P25099)
T4 sequence (P25099 whole entry): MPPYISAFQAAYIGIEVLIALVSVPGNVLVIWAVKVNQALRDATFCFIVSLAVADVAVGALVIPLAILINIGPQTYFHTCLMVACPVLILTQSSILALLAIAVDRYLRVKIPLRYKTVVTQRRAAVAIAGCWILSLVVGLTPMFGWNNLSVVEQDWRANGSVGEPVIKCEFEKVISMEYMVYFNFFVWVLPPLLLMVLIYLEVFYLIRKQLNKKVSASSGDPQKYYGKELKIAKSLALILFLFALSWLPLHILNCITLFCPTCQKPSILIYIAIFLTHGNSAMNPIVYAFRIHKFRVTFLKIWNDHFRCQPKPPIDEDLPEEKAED

[6] = molecular target: T5, Adenosine receptor A1 (Oryctolagus cuniculus, UniProt P34970)
T5 sequence (P34970 whole entry): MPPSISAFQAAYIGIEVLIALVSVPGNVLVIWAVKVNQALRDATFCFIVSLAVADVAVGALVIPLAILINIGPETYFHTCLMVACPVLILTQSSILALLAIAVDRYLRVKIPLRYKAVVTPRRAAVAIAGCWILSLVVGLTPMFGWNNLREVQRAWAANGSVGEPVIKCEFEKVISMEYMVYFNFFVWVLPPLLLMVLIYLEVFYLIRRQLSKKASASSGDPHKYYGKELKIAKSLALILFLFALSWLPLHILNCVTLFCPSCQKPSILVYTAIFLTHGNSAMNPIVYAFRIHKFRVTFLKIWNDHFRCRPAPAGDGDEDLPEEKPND

Sequence of P2Y purinoceptor 2 (P58825 whole entry): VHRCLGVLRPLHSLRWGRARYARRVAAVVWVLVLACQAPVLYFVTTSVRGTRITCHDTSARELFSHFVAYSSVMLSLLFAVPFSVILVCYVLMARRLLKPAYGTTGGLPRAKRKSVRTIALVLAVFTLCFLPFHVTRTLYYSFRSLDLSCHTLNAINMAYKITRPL

Q: Which Ki [1] does the source give for CCCn1c(=O)c2[nH]c(C3CCCC3)nc2n(CCC)c1=O [DPCPX] here?
A: Its Ki is 0.1 nM.

Q: And the Ki [2]?
A: The Ki was 0.05 nM.

Q: What about the Ki [3] of the same compound?
A: Its Ki is 0.14 nM.

Q: What does the source list for CCCn1c(=O)c2[nH]c(-c3ccc(OCC(=O)NCCN)cc3)nc2n(CCC)c1=O [N-(2-Amino-ethyl)-2-[4-(2,6-dioxo-1,3-dipropyl-2,3,6,9-tetrahydro-1H-purin-8-yl)-phenoxy]-acetamide]?
A: Ki [1]: 0.09 nM; Ki [2]: 0.03 nM; Ki [4]: 1.48 nM and 5.49 nM; Ki [5]: 0.49 nM; Ki [3]: 0.31 nM; Ki [6]: 0.45 nM

Q: How did the Ki [1] turn out when Cn1c(=O)c2[nH]c(C3CCCC3)nc2n(C)c1=O [NSC_1917] was run?
A: The Ki was 2.9 nM.

Q: What about the Ki [2] of the same compound?
A: Its Ki is 1.4 nM.

Q: And the Ki [4]?
A: The Ki was 26.1 nM.

Q: What about the Ki [5] of the same compound?
A: The Ki was 6.3 nM.

Q: And the Ki [3]?
A: Its Ki is 4.3 nM.

Q: What about the Ki [6] of the same compound?
A: Its Ki is 6.4 nM.

Q: Which results are given for Cn1c(=O)c2[nH]cnc2n(C)c1=O [Theophylline (1,3-dimethylxanthine)]?
A: Ki [1]: 9050 nM; Ki [3]: 4550 nM; Ki [6]: 4710 nM
